From patent publication US7989466B2, “Methods to inhibit or augment an inflammatory response” (Cambridge Enterprise Limited, priority 1999, dated 2011)
Where two headings read alike, the source gives them in different places.

Columns and labels:
[1] = test system: MIP1α induced THP-1 migration; test: THP-1 trans-well migration assay, MIP1α as chemoattractant; format: cell-based, human; details: for EC50: n.s. = no statistically significant inhibition (p > 0.05), read-out: ED50 versus MIP1α, inhibition of THP-1 migration
Method: (§1) To determine whether an agent inhibits a chemokine-induced activity, such as macrophage recruitment, varying amounts of the agent are mixed with cells in the presence of a known chemoattractant. For example, a range of known concentrations of an agent, e.g., a chemokine peptide, is incubated with a defined number (e.g., 10^4-10^6) of human THP-1 monocyte cells in individual wells of the top compartment of a trans-well plate. Chemokine (such as MCP-1, MIP1α, IL8 or SDF-1α), at a concentration known to cause significant migration of THP-1 cells in the trans-well migration assay, is placed in the lower compartment (FIG. 1). Cells are then incubated at 37° C. for a period sufficient to allow migration, e.g., 4 hours. After incubation, the cells are gently removed from the top of the filter with a pipette, 20 μl of 20 mM EDTA in simple PBS is added into each top well, and incubated for 20 minutes at 4° C. The filter is carefully flushed with media using a gentle flow, and removed. A standard curve consisting of a two-fold dilution series of THP-1 cells (in 29 μl) is prepared to accurately quantify the number of cells that have migrated. Migrated cells are stained with 3 μl of MTT stock dye solution which is added directly into each well (5 mg/ml in RPMI-1640 without phenol red, Sigma Chemical Co.) and incubated at 37° C. for 4 hours. The media is carefully aspirated from each well, and the converted dye is solubilized by 20 μl of DMSO. Absorbance of converted dye is measured at a wavelength of 595 nm using an ELISA plate reader. The number of migrated cells in each well is then determined by interpolation of the standard curve (see also Imai et al., J. Biol. Chem., 272, 15036 (1997)).
(§2) For this assay, THP-1 cells were maintained at a density of 4×10^5 cells per ml in RPMI-1640 supplemented with 10% fetal calf serum+20 μM 2-mercaptoethanol. Chemotaxis was induced in a 96-well disposable chemotaxis chamber fitted with a […] polycarbonate filter (PVP free, ChemoTX, Neuroprobe Inc., Cabin John). Twenty-nine μl of chemoattractant (recombinant human chemokine; 50 ng/ml, i.e., 5.9 nM) or control (100 ng/ml TGFβ) was added to the lower compartment of each well. The framed filter was aligned with the holes in the corner of the filter frame and placed over the wells. Five×10^4 THP-1 cells in 25 μl of RPMI-1640 were added to the upper compartment. Peptides were dissolved in Milli Q water and then serially diluted in culture medium. In most cases, the serially diluted peptides were added to the upper compartment of the chemotaxis chamber. The chamber was incubated at 37° C. in a humidified atmosphere of 5% CO2 for 4 hours.
(§3) After incubation, the cells were gently removed from the top of the filter with a pipette, 20 μl of 20 mM EDTA in PBS was added into each top well, and the mixture was incubated for 20 minutes at 4° C. The filter was then carefully flushed with media using a gentle flow, and removed. A standard curve was prepared to accurately quantify the number of THP-1 cells that had migrated. The curve was based on a two-fold dilution series of THP-1 cells (top standard 100,000 cells in 29 μl). Cells which had migrated, and in separate wells, the cells in the standards, were stained with 3 μl of MTT stock solution which was added directly into each well (5 mg/ml in RPMI 1640 without phenol red, Sigma Chemical Co.) and incubated at 37° C. for 4 hours. The media was carefully aspirated from each well, and the converted dye was solubilized by 20 μl of DMSO. Absorbance of converted dye was measured at a wavelength of 595 nm using an ELISA plate reader. The number of cells that had migrated in each well was determined by interpolation of the standard curve.

[2] = test system: IL8 induced THP-1 migration; test: THP-1 trans-well migration assay, IL-8 as chemoattractant; format: cell-based, human; details: n.s. = no statistically significant inhibition (p > 0.05); for EC50: read-out: ED50 versus IL8, inhibition of THP-1 migration
Method: as §1, §2, §3

[3] = test system: MCP-1 induced THP-1 migration; test: THP-1 trans-well migration assay, MCP-1 as chemoattractant; format: cell-based, human; details: agent with the cells in the upper compartment, n.s. = no statistically significant inhibition (p > 0.05); for EC50: read-out: ED50 versus MCP-1, inhibition of THP-1 migration
Method: as §1, §2, §3

[4] = test system: SDF-1α induced THP-1 migration; test: THP-1 trans-well migration assay, SDF-1α as chemoattractant; format: cell-based, human; details: for EC50: read-out: ED50 versus SDF-1α, inhibition of THP-1 migration
Method: as §1, §2, §3

[5] = test system: chemokine-induced THP-1 migration; test: THP-1 trans-well migration assay, panel of chemokines (MCP-1, MIP1α, IL-8, SDF1α); format: cell-based, human; details: for CC SPECIFICITY: average inhibitory ED50 versus SDF1 and IL8 divided by average inhibitory ED50 versus MCP-1 and MIP1α; for Chemokine antagonist: active against at least one of IL-8, SDF-1α, MCP-1, MIP1α
[6] = test system: TGFβ1 induced THP-1 migration; test: THP-1 trans-well migration assay, TGFβ1 as non-chemokine control; format: cell-based, human; details: n.s. = no statistically significant inhibition (p > 0.05)
Method: Any method suitable for counting cells can be used, for example, counting with a hemocytometer, incubation of the cells with MTT (see above), or FACS analysis. A negative control assay is also performed, using TGF-β or another non-chemokine chemoattractant (e.g., IL1β or TNFα). To assess whether the agent is cytotoxic, the same concentrations of agent are incubated with THP-1 cells. Agents which 1) are not cytotoxic at levels which inhibit migration, 2) are ineffective at inhibiting the negative control-induced migration, and 3) reduce or inhibit chemokine-induced THP-1 migration, are agents which fall within the scope of the invention.
Chemotaxis was induced in a 96-well disposable chemotaxis chamber fitted with a […] polycarbonate filter (PVP free, ChemoTX, Neuroprobe Inc., Cabin John). […] The framed filter was aligned with the holes in the corner of the filter frame and placed over the wells. […] Peptides were dissolved in Milli Q water and then serially diluted in culture medium. In most cases, the serially diluted peptides were added to the upper compartment of the chemotaxis chamber. The chamber was incubated at 37° C. in a humidified atmosphere of 5% CO2 for 4 hours.
After incubation, the cells were gently removed from the top of the filter with a pipette, 20 μl of 20 mM EDTA in PBS was added into each top well, and the mixture was incubated for 20 minutes at 4° C. The filter was then carefully flushed with media using a gentle flow, and removed. […] The curve was based on a two-fold dilution series of THP-1 cells (top standard 100,000 cells in 29 μl). […] The media was carefully aspirated from each well, and the converted dye was solubilized by 20 μl of DMSO.

[7] = biological target: T1, Duffy Antigen Receptor for Chemokines (DARC) (Homo sapiens, UniProt Q16570); test: DARC binding: competition with 125I-MCP-1 on red blood cells
T1 sequence (Q16570 1-336): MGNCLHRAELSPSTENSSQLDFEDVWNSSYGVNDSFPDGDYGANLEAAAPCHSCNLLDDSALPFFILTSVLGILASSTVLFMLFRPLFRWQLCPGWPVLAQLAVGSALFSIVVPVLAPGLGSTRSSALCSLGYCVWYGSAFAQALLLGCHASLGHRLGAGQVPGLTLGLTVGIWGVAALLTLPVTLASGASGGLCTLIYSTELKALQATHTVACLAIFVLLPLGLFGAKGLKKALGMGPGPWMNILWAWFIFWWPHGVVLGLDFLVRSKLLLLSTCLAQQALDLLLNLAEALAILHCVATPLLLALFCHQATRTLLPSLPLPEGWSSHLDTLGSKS

[8] = biological target: T2, Recombinant human latent TGF-β1 (Homo sapiens, UniProt P01137); test: Latent TGF-β1 activation ELISA (R2X capture); format: biochemical; design: key: −: A minus indicates no detectable activity in the assay; +: The number of pluses is a qualitative indicating of the activity of each peptide in each assay; ++: The number of pluses is a qualitative indicating of the activity of each peptide in each assay; +++: The number of pluses is a qualitative indicating of the activity of each peptide in each assay; ++++: The number of pluses is a qualitative indicating of the activity of each peptide in each assay; +++++: The number of pluses is a qualitative indicating of the activity of each peptide in each assay; details: test peptide at 100 nM, 37° C., 90 minutes
T2 construct: purchased R&D Systems; host or cells: CHO cells
T2 sequence (P01137 30-278 limits assumed): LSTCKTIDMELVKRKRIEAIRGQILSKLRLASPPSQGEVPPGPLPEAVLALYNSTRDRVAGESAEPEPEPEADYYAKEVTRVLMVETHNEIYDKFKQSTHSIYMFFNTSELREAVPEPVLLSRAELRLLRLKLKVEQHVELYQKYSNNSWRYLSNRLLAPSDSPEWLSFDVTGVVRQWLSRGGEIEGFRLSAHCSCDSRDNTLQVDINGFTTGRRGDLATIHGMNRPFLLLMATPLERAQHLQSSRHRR
Method: To test whether a KXK tripeptide activates TGF-beta, a direct ELISA-type assay can be used. Recombinant human latent TGF-β1 produced in CHO cells (R&D Systems) was incubated with the test activator. For example, 200 ng of latent TGF-β1 (at 20 μg/ml) was incubated with test peptide at 100 nM final concentration at 37° C. for 90 minutes. Following incubation, the TGF-β is incubated with the recombinant extracellular domain of the Type II TGF-β receptor (R2X) which binds only the active and not the latent forms of TGF-β1 (Clin. Chim. Acta, 235, 11 (1995)). For example, 1 μg of purified R2X is coated onto a Maxisorp ELISA plate well in 50 μl of 100 mM sodium carbonate for 2 hours at 4° C., and non-specific protein binding then blocked incubation with 5% sucrose 5% Tween-20 in Tris-buffered saline for 1 hour at room temperature.
The TGF-β sample is then incubated with the coated and blocked wells for 2 hours at room temperature with shaking. Wells are washed 3 times quickly with Tris-buffered saline containing 0.05% Tween-20 between each incubation. If any of the latent TGF-β1 has been activated by the incubation with test peptide, it is captured by the R2X, while remaining latent TGF-β1 is washed away. Captured active TGF-β1 is then detected by incubation with a suitable detection agent, such as a peroxidase conjugated polyclonal anti-TGF-beta antibody. For example, the wells are incubated with 200 μl of BDA19 chicken anti-TGF-β1 antibody coupled to horseradish peroxidase for 90 minutes at room temperature with shaking. Any bound peroxidase is then detected using a suitable chromogenic substrate (e.g., K-BLUE TMB substrate solution). The amount of active TGF-β generated is estimated by interpolation of a standard curve constructed using known amounts of active TGF-β1 (R&D Systems).

[9] = n.s. = no statistically significant inhibition (p > 0.05)
[10] = average inhibitory ED50 for inhibition of THP-1 migration induced by each of the chemokines, read-out: AVERAGE ED50
[11] = tripeptide at 100 μM, mean ± range, dash = no statistically significant reduction in migration
[12] = footnote f, KQK MCP-1, SEE MIP1α, KLK SDF1, KEN IL8, read-out: ED50 of a tripeptide against the one chemokine it is highly specific for

EICADPSQKWVQ [Ser7peptide 3]
EC50 [1]: 6 µM
EC50 [2]: 3 µM
EC50 [3]: 7 µM
EC50 [4, 9]: 4 µM
EC50 [5, 10]: 5 µM
CC SPECIFICITY [5]: 0.5
ED50 versus TGFβ1, inhibition of THP-1 migration [6]: n.s.

EICLDPKQKWIQ [Leu4Ile11peptide 3]
EC50 [1]: 1 µM
EC50 [2]: 3 µM
EC50 ([3]; listed as Leu4Ile11peptide 3(1-12)[MCP-1]): ~1 µM
EC50 [3]: 2 µM
EC50 [4, 9]: 3 µM
selectivity for receptors on THP-1 cells over DARC [7]: at least 20 fold
more potent as an inhibitor of CC chemokines than peptide 3(1-12)[MCP-1] [5]: approximately 5 fold
EC50 ([5]; average inhibitory ED50 for inhibition of THP-1 migration induced by each of the chemokines, listed as Leu4Ile11peptide 3(1-12)[MCP-1], read-out: AVERAGE ED50): 2.3 µM
CC SPECIFICITY [5]: 2.0
ED50 versus TGFβ1, inhibition of THP-1 migration [6]: n.s.

EICLDPKQKWVQ [Leu4peptide 3]
EC50 [1]: 7 µM
EC50 [2]: 3 µM
EC50 [3]: 8 µM
EC50 [4, 9]: 3 µM
increase in potency as an inhibitor of CXC chemokines compared with peptide 3(1-12)[MCP-1] [5]: approximately 4 fold
EC50 [5, 10]: 5 µM
ED50 versus TGFβ1, inhibition of THP-1 migration [6]: n.s.

KDK
TGF-beta Activator [8]: −
Chemokine antagonist [5]: +

KEK
TGF-beta Activator [8]: −
Chemokine antagonist [5]: +

KFK
TGF-beta Activator [8]: ++++
Chemokine antagonist [5]: −

KGK
TGF-beta Activator [8]: −
Chemokine antagonist [5]: −

KIK
TGF-beta Activator [8]: ++
Chemokine antagonist [5]: ++

KKK
TGF-beta Activator [8]: −
Chemokine antagonist [5]: ++++

KLK
TGF-beta Activator [8]: +++
percentage inhibition of migration induced by SDF1α [4, 11]: 87 ± 6%
Chemokine antagonist [5]: ++++
CC SPECIFICITY [5]: <0.1
EC50 [5, 12]: 0.1 to 10 µM

KQKWVQ [Peptide 3[7-12]]
EC50 [1]: 5 µM
EC50 [2]: 6 µM
EC50 [3]: 7 µM
EC50 [4, 9]: 6 µM
EC50 ([5]; THP-1 migration, read-out: ED50 range, migration by all chemokines tested): 7 to 9 µM
ED50 versus TGFβ1, inhibition of THP-1 migration [6]: n.s.

KSK
TGF-beta Activator [8]: −
Chemokine antagonist [5]: −

KTK
TGF-beta Activator [8]: −
Chemokine antagonist [5]: −

KWK
TGF-beta Activator [8]: −
Chemokine antagonist [5]: −

KYK
TGF-beta Activator [8]: +++++
Chemokine antagonist [5]: −

SEE
EC50 [1]: 6 µM
percentage inhibition of migration induced by MIP1α [1, 11]: 65 ± 3%
ED50 versus IL8, inhibition of THP-1 migration [2]: n.s.
ED50 versus MCP-1, inhibition of THP-1 migration [3]: n.s.
ED50 versus SDF-1α, inhibition of THP-1 migration [4, 9]: n.s.
specificity for the cognate chemokine over all the other chemokines tested ([5]; KQK MCP-1, SEE MIP1-α): > 100 fold
CC SPECIFICITY [5]: >100
EC50 [5, 12]: 0.8 µM
ED50 versus TGFβ1, inhibition of THP-1 migration [6]: n.s.
